Data on 1 molecule can be found in the NIST ThermoML archive (doi:10.1016/j.tca.2013.03.013).

For this series the following is noted: Crystal.

Numbers after ± are expanded uncertainties.

Consider `CC1(C)O[C@@H]2C[C@H]3[C@@H]4C[C@H](F)C5=CC(=O)C=C[C@]5(C)[C@@]4(F)[C@@H](O)C[C@]3(C)[C@]2(C(=O)CO)O1` [fluocinolone acetonide], for which the Normal melting temperature reads like this: (DTA) 261.4 ± 0.7 °C; (visual observation) 262.00 ± 0.5 °C.
